Test results reported in patent US20240279236A1, “COMPOUNDS AND METHODS OF TREATING TUBERCULOSIS” (Fimbrion Therapeutics, Inc., priority 2021, published 2024).

System: WT Mtb Erdman strain
Experiment: Microplate Alamar Blue Assay (MABA), Mtb growth inhibition
Format: cell-based, Mycobacterium tuberculosis
Settings: Mycobacterium tuberculosis, ERDMAN, 168 h, Middlebrook 7H9 media, 7 days at 37° C. in 5% CO2

| SMILES | IC50 [nM] |
| --- | --- |
| Cc1cc2c(N[C@@H]3C[C@H]3c3ccc(F)c(F)c3)nc(C3CC3)nc2s1 [Example 43, 2-cyclopropyl-N-((1R,2S)-2-(3,4-difluorophenyl)cyclopropyl)-6-methylthieno[2,3-d]pyrimidin-4-amine] | 2400 |
| Cc1cc2c(N[C@@H]3C[C@H]3c3ccc(F)c(F)c3)nc(-c3cccnc3)nc2s1 [Example 44, N-((1R,2S)-2-(3,4-difluorophenyl)cyclopropyl)-6-methyl-2-(pyridin-3-yl)thieno[2,3-d]pyrimidin-4-amine] | 6300 |
| Fc1ccc([C@@H]2C[C@H]2Nc2nc(-c3ccccn3)nc3sc(C(F)(F)F)cc23)cc1F [Example 45, N-((1R,2S)-2-(3,4-difluorophenyl)cyclopropyl)-2-(pyridin-2-yl)-6-(trifluoromethyl)thieno [2,3-d]pyrimidin-4-amine] | 2800 |
| Cc1cc2c(N[C@@H]3C[C@H]3c3ccc(F)c(F)c3)nc(-c3ccc(F)cn3)nc2s1 [Example 46, N-((1R,2S)-2-(3,4-difluorophenyl)cyclopropyl)-2-(5-fluoropyridin-2-yl)-6-methylthieno[2,3-d]pyrimidin-4-amine] | 2200 |
| Cc1cc2c(N[C@@H]3C[C@H]3c3ccc(F)c(F)c3)nc(-c3ccncc3)nc2s1 [Example 47, N-((1R,2S)-2-(3,4-difluorophenyl)cyclopropyl)-6-methyl-2-(pyridin-4-yl)thieno[2,3-d]pyrimidin-4-amine] | > 8800 |
| Cc1cc2c(NCCCc3ccc(C(F)(F)F)cc3)nc(C(F)(F)F)nc2s1 [Example 48, 6-methyl-2-(trifluoromethyl)-N-(3-(4-(trifluoromethyl)phenyl)propyl)thieno[2,3-d] pyrimidin-4-amine] | 2600 |
| COc1ccc(CCCNc2nc(C(F)(F)F)nc3sc(C)cc23)cc1 [Example 49, N-(3-(4-methoxyphenyl)propyl)-6-methyl-2-(trifluoromethyl)thieno [2,3-d]pyrimidin-4-amine] | 2000 |
| Cc1cc2c(N[C@@H]3C[C@H]3c3ccc(F)c(F)c3)nc(C(C)(F)F)nc2s1 [Example 50, 2-(1,1-difluoroethyl)-N-((1R,2S)-2-(3,4-difluorophenyl)cyclopropyl)-6-methylthieno[2,3-d]pyrimidin-4-amine] | 1100 |
| Cc1cc2c(NCCCc3ccccc3)nc(C(C)(C)C)nc2s1 [Example 51, 2-(tert-butyl)-6-methyl-N-(3-phenylpropyl)thieno [2,3-d]pyrimidin-4-amine] | > 10000 |
| CCCc1nc(N[C@@H]2C[C@H]2c2ccc(F)c(F)c2)c2cc(C)sc2n1 [Example 52, N-((1R,2S)-2-(3,4-difluorophenyl)cyclopropyl)-6-methyl-2-propylthieno[2,3-d]pyrimidin-4-amine] | 810 |
| CSc1nc(N[C@@H]2C[C@H]2c2ccc(F)c(F)c2)c2cc(C)sc2n1 [Example 53, N-((1R,2S)-2-(3,4-difluorophenyl)cyclopropyl)-6-methyl-2-(methylthio)thieno[2,3-d]pyrimidin-4-amine] | 240 |
| CCCc1nc(NCCCc2ccccc2)c2cc(C)sc2n1 [Example 54, 6-methyl-N-(3-phenylpropyl)-2-propylthieno[2,3-d]pyrimidin-4-amine] | 310 |
| CSc1nc(NCCCc2ccccc2)c2cc(C)sc2n1 [Example 55, 6-methyl-2-(methylthio)-N-(3-phenylpropyl)thieno [2,3-d]pyrimidin-4-amine] | 17 |
| Cc1cc2c(N[C@@H]3C[C@H]3c3ccc(F)c(F)c3)nc(-c3ccc(F)cc3)nc2s1 [Example 56, N-((1R,2S)-2-(3,4-difluorophenyl)cyclopropyl)-2-(4-fluorophenyl)-6-methylthieno[2,3-d]pyrimidin-4-amine] | 4200 |
| Cc1cc2c(NCCCc3ccccc3)nc(-c3ncco3)nc2s1 [Example 57, 6-methyl-2-(oxazol-2-yl)-N-(3-phenylpropyl)thieno [2,3-d]pyrimidin-4-amine] | 4100 |
| Cc1cc2c(NCCCc3ccccc3)nc(C3(N)CC3)nc2s1 [Example 58, 2-(1-aminocyclopropyl)-6-methyl-N-(3-phenylpropyl)thieno [2,3-d]pyrimidin-4-amine] | 5000 |

| SMILES | IC50 [nM] |
| --- | --- |
| CCc1nc(NCCCc2ccc(F)c(F)c2)c2cc(C)sc2n1 [Example 59, N-(3-(3,4-difluorophenyl)propyl)-2-ethyl-6-methylthieno[2,3-d]pyrimidin-4-amine] | 430 |
| Cc1cc2c(NCCCc3ccc(F)c(F)c3)nc(C(F)(F)F)nc2s1 [Example 60, N-(3-(3,4-difluorophenyl)propyl)-6-methyl-2-(trifluoromethyl)thieno [2,3-d]pyrimidin-4-amine] | 4900 |
| CCc1nc(NC/C=C/c2ccccc2)c2cc(C)sc2n1 [Example 61, N-cinnamyl-2-ethyl-6-methylthieno[2,3-d]pyrimidin-4-amine] | 70 |
| CCc1nc(NCCNc2ccccc2)c2cc(C)sc2n1 [Example 62, N1-(2-ethyl-6-methylthieno[2,3-d]pyrimidin-4-yl)-N2-phenylethane-1,2-diamine] | 810 |
| Cc1cc2c(NCCCc3ccccc3)nc(-c3cccs3)nc2s1 [Example 63, 6-methyl-N-(3-phenylpropyl)-2-(thiophen-2-yl)thieno[2,3-d]pyrimidin-4-amine] | 1900 |
| CCc1nc(NCCCOc2ccccc2)c2cc(C)sc2n1 [Example 64, 2-ethyl-6-methyl-N-(3-phenoxypropyl)thieno [2,3-d]pyrimidin-4-amine] | 1700 |
| CCc1nc(NCCOc2ccc(Br)cc2)c2cc(C)sc2n1 [Example 65, N-(2-(4-bromophenoxy)ethyl)-2-ethyl-6-methylthieno[2,3-d]pyrimidin-4-amine] | 2800 |
| CCc1nc(NCCC(C)(C)c2ccccc2)c2cc(C)sc2n1 [Example 66, 2-ethyl-6-methyl-N-(3-methyl-3-phenylbutyl)thieno [2,3-d]pyrimidin-4-amine] | 6000 |
| CCc1nc(NCCc2ccc(O)cc2)c2cc(C)sc2n1 [Example 67, 4-(2-((2-ethyl-6-methylthieno[2,3-d]pyrimidin-4-yl)amino)ethyl)phenol] | > 10000 |
| CCc1nc(NCCS(=O)(=O)c2ccccc2)c2cc(C)sc2n1 [Example 68, 2-ethyl-6-methyl-N-(2-(phenylsulfonyl)ethyl) thieno[2,3-d]pyrimidin-4-amine] | > 10000 |
| CCc1nc(NCCCOc2ccc(Cl)cc2)c2cc(C)sc2n1 [Example 69, N-(3-(4-chlorophenoxy)propyl)-2-ethyl-6-methylthieno[2,3-d]pyrimidin-4-amine] | 1100 |
| CCc1nc(NCCCc2ccc(O)cc2)c2cc(C)sc2n1 [Example 70, 4-(3-((2-ethyl-6-methylthieno[2,3-d]pyrimidin-4-yl)amino)propyl) phenol] | 230 |
| CSc1nc(NCCCOc2ccc(Cl)cc2)c2cc(C)sc2n1 [Example 71, N-(3-(4-chlorophenoxy)propyl)-6-methyl-2-(methylthio)thieno[2,3-d]pyrimidin-4-amine] | 350 |
| Cc1cc2c(NCCCOc3ccc(Cl)cc3)nc(C(F)(F)F)nc2s1 [Example 72, N-(3-(4-chlorophenoxy)propyl)-6-methyl-2-(trifluoromethyl)thieno [2,3-d]pyrimidin-4-amine] | 3900 |
| Cc1cc2c(NCCCc3ccccc3)nc(C(C)(C)N)nc2s1 [Example 73, 2-(2-aminopropan-2-yl)-6-methyl-N-(3-phenylpropyl)thieno [2,3-d]pyrimidin-4-amine] | > 10000 |
